# Patent US20170027172A1, “USE OF SUBSTITUTE OXO TETRAHYDROQUINOLINE SULFONAMIDES OR SALTS THEREOF FOR RAISING STRESS TOLERANCE OF PLANTS” (BAYER CROPSCIENCE AKTIENGESELLSCHAFT, priority 2014, published 2017)
# Assays:
# [1] = system: Triticum aestivum; experiment: Drought stress greenhouse test Part C, visual scoring vs stressed control plants; type: in vivo; conditions: efficacy range of 3-4 pots
# Protocol: Seeds of monocotyledonous and dicotyledonous crop plants were sown in sandy loam in plastic or wood-fiber pots, covered with soil or sand and cultivated in a greenhouse under good growth conditions. The trial plants were treated at the early leaf stage (BBCH10-BBCH13). To assure uniform water supply before commencement of stress, the potted plants were supplied with water by dam irrigation prior to substance application. The inventive compounds were first formulated as wettable powders (WP) or dissolved in a solvent mixture. The further dilution was effected with water supplemented with 0.2% wetting agent (e.g. agrotin). The finished spray liquor was sprayed onto the green parts of the plant at an equivalent water application rate of 600 l/ha. Substance application was followed immediately by stress treatment of the plants. For this purpose, the wood-fiber pots were transferred in plastic inserts in order to prevent them from subsequently drying out too quickly. Drought stress was induced by gradual drying out under the following conditions: “Day”: 14 hours with illumination at 26-30° C. “Night”: 10 hours without illumination at 18-20° C. The duration of the respective stress phases was guided mainly by the condition of the stressed control plants. It was ended (by re-irrigating and transfer to a greenhouse with good growth conditions) as soon as irreversible damage was observed on the stressed control plants. The end of the stress phase was followed by an about 4-7-day recovery phase, during which the plants were once again kept under good growth conditions in a greenhouse. The duration of the recovery phase was guided mainly by when the trial plants had attained a state which enabled visual scoring of potential effects, and was therefore variable. Once this juncture had been reached, the appearance of the plants treated with test substances was recorded in comparison to the stressed control plants by the following categories: [table] For each substance and dosage, 3-4 pots were treated and evaluated. […] BRSNS=Brassica napus TRZAS=Triticum aestivum
# [2] = target: T1, phosphatase ABI1 via the co-regulator RCAR11/PYR1 (Arabidopsis thaliana, UniProt O49686+P49597); experiment: In vitro inhibition of the phosphatase ABI1 via the co-regulator RCAR11/PYR1, MUP dephosphorylation; type: biochemical; set-up: dose or concentration left out as unconfirmed; conditions: in a solution of DMSO and water; fluorescence at 460 nm
# T1 sequence (O49686 1-191): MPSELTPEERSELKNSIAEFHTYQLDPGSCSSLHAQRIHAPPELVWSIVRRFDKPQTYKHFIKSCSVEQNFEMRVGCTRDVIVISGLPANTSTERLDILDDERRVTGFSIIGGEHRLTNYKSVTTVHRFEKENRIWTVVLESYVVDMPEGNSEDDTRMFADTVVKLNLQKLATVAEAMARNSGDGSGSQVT
# T1 sequence (P49597 1-434): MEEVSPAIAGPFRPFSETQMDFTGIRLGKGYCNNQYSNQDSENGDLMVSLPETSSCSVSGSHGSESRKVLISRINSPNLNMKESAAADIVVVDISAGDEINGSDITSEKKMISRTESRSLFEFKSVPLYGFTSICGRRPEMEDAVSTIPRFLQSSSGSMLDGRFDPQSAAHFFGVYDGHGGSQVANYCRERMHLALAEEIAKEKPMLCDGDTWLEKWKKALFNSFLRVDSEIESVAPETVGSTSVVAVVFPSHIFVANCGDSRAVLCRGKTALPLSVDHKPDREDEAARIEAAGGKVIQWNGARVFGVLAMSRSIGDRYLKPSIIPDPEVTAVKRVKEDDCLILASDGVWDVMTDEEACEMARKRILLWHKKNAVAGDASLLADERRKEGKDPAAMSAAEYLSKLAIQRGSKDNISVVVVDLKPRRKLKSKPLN
# Summary of the method: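 Arabidopsis ABI1 (0.15 μg/well) with RCAR11/PYR1 (0.30 μg/well) in Tris-HCl pH 8, NaCl, MnCl2, DTT, Tween20; MUP substrate, 20 min at 35 °C, fluorescence ex 340/em 460 nm. Compounds tested at 5 mM in DMSO/water, optionally pre-treated with porcine liver esterase; inhibition banded ≥90/70/50/30%.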
# [3] = system: Triticum aestivum; experiment: Drought stress greenhouse test Part A, visual scoring vs stressed control plants; type: in vivo; set-up: key: 0: no effect; 10: slight positive effect; 20: clear positive effect; 30: strong positive effect; conditions: average score of 3 pots
# Protocol: Seeds of monocotyledonous and dicotyledonous crop plants were sown in sandy loam in plastic pots, covered with soil or sand and cultivated in a greenhouse under good growth conditions. The trial plants were treated at the early leaf stage (BBCH10-BBCH13). To assure uniform water supply before commencement of stress, the potted plants were supplied with water by dam irrigation prior to substance application.
# The inventive compounds formulated in the form of wettable powders (WP) were sprayed onto the green parts of the plants as an aqueous suspension at an equivalent water application rate of 600 l/ha with addition of 0.2% wetting agent (e.g. agrotin). Substance application was followed immediately by stress treatment of the plants.
# Drought stress was induced by gradual drying out under the following conditions:
# “Day”: 14 hours with illumination at ˜26-30° C. “Night”: 10 hours without illumination at ˜18-20° C.
# The duration of the respective stress phases was guided mainly by the condition of the stressed control plants. It was ended (by re-irrigating and transfer to a greenhouse with good growth conditions) as soon as irreversible damage was observed on the stressed control plants.
# The end of the stress phase was followed by an about 4-7-day recovery phase, during which the plants were once again kept under good growth conditions in a greenhouse. The duration of the recovery phase was guided mainly by when the trial plants had attained a state which enabled visual scoring of potential effects, and was therefore variable.
# Once this juncture had been reached, the appearance of the plants treated with test substances was recorded in comparison to the stressed control plants by the following categories:
# In order to rule out any influence on the effects observed by any fungicidal or insecticidal action of the test compounds, it was additionally ensured that the tests proceeded without fungal infection or insect infestation.
# In each test, for each crop and dosage, plants in 3 pots were treated and evaluated separately. The values reported in Tables A-1 to A-2 below for the effects obtained are averages from the scores obtained.
# BRSNS=Brassica napus TRZAS=Triticum aestivum
# [4] = system: Triticum aestivum; experiment: Drought stress test on wheat Part D, reduction in damage intensity from fresh weights; type: in vivo; conditions: efficacy = reduction in damage intensity (fresh weight) under drought stress, at least three repeats
# From the text: Wheat grains were sown in a standardized number in sandy loam soil plastic pots, covered with soil or sand and grown in a greenhouse under good growth conditions. Pots with uneven degrees of emergence were excluded prior to the start of the trial. The treatment with test substances was effected at the early leaf stage (BBCH10-BBCH13). To assure uniform water supply, the potted plants were supplied with water by dam irrigation prior to substance application. The inventive compounds were first formulated as wettable powders (WP) or dissolved in a solvent mixture. The further dilution was effected with water supplemented with 0.2% wetting agent (e.g. agrotin). The finished spray liquor was sprayed onto the green parts of the plant at an equivalent water application rate of 600 l/ha. Substance application was followed immediately by stress treatment of the plants. Drought stress was induced by gradual drying out under the following conditions: “Day”: 14 hours with illumination at 26-30° C. “Night”: 10 hours without illumination at 18-20° C. The duration of the respective stress phases was guided mainly by the condition of the stressed control plants. It was ended (by re-irrigating and transfer to a greenhouse with good growth conditions) as soon as irreversible damage was observed on the stressed control plants. The end of the stress phase was followed by an about 7-day recovery phase, during which the plants were once again kept under good growth conditions in a greenhouse. The exact duration of the recovery phase was variable for reasons related to the trial. At the end of the recovery phase, the fresh weights of the plant parts above ground were determined. By comparison with unstressed control plants which were kept under good growth conditions over the entire duration of the trial, percentage damage intensities were first calculated from the fresh weight values. The reduction in damage intensity resulting from treatment with test substance was then calculated by the following formula: [formula] EF: Efficacy DIs: Damage intensity of the stressed control plants DIt: Damage intensity of the stressed plants treated with test compound The values reported in table D-1 below are results from at least three repeats. BRSNS=Brassica napus TRZAS=Triticum aestivum
structure (smiles),measurement,setting,value
Cc1ccc(CS(=O)(=O)Nc2ccc3c(c2)CCC(=O)N3CCSC(F)(F)F)cc1 [A42-152],Effect (TRZAS),[1]; spray application 25 g/ha,10-20
same,ABI1 inhibition,[2],+++ (90%>inhibition≧70%)
COC(=O)CCN1C(=O)CC(C)(C)c2cc(NS(=O)(=O)Cc3ccc(Br)cc3)ccc21 [B51-172],Effect (TRZAS),[1]; spray application 25 g/ha,10-20
COCCN1C(=O)CC2(CCCCC2)c2cc(NS(=O)(=O)Cc3ccc(C(F)(F)F)cc3)ccc21 [I5-178],Effect (TRZAS),[1]; spray application 250 g/ha,10-30
CCC1(C)CC(=O)N(CCOC)c2ccc(NS(=O)(=O)Cc3ccccc3)cc21 (stereo not drawn) [F7-151],Effect (TRZAS),[1]; spray application 25 g/ha,10-20
Cc1ccc(CS(=O)(=O)Nc2ccc3c(c2)CCC(=O)N3CC2CC2)cc1 [A19-152],Effect (TRZAS),[3]; spray application 25 g/ha,20
same,ABI1 inhibition,[2],++++ (inhibition≧90%)
COC(=O)CN1C(=O)CCc2cc(NS(=O)(=O)Cc3ccc(C)cc3)ccc21 [A50-152],Effect (TRZAS),[1]; spray application 250 g/ha,10-20
same,ABI1 inhibition,[2],++++ (inhibition≧90%)
CCC1(C)CC(=O)N(CC2CC2)c2ccc(NS(=O)(=O)Cc3cccc(Cl)c3)cc21 (stereo not drawn) [F3-166],Effect (TRZAS),[1]; spray application 250 g/ha,10-20
COC(=O)CN1C(=O)CCc2cc(NS(=O)(=O)Cc3cccc(C#N)c3)ccc21 [A50-182],Effect (TRZAS),[1]; spray application 250 g/ha,10-20
COC(=O)CN1C(=O)CC(C)(C)c2cc(NS(=O)(=O)Cc3ccc(Cl)cc3)ccc21 [B50-165],Effect (TRZAS),[1]; spray application 250 g/ha,10-20
COC(=O)CN1C(=O)CCc2cc(NS(=O)(=O)Cc3cccc(Br)c3)ccc21 [A50-173],Effect (TRZAS),[1]; spray application 25 g/ha,10-20
COCCN1C(=O)CC2(CCCCC2)c2cc(NS(=O)(=O)Cc3cccc(Cl)c3)ccc21 [I5-166],Effect (TRZAS),[1]; spray application 250 g/ha,10-20
CCOC(=O)CCN1C(=O)CC(C)(C)c2cc(NS(=O)(=O)Cc3ccc(C#N)cc3)ccc21 [B52-181],EF [%] (TRZAS),[4]; 250 g/ha,14%
same,Effect (TRZAS),[1]; spray application 250 g/ha,10-20
CCC1(C)CC(=O)N(CCOC)c2ccc(NS(=O)(=O)Cc3ccc(Cl)cc3)cc21 (racemic) [F7-165],Effect (TRZAS),[1]; spray application 25 g/ha,10-20
O=C1CC2(CCC2)c2cc(NS(=O)(=O)Cc3ccc(Cl)cc3)ccc2N1CC1CC1 [J3-165],Effect (TRZAS),[1]; spray application 250 g/ha,10-20
CC1(C)CC(=O)N(CC(F)(F)F)c2ccc(NS(=O)(=O)Cc3ccc(Cl)cc3)cc21 [B2-165],Effect (TRZAS),[3]; spray application 25 g/ha,20
N#Cc1cccc(CS(=O)(=O)Nc2ccc3c(c2)CCC(=O)N3CC2CC2)c1 [A19-182],Effect (TRZAS),[3]; spray application 25 g/ha,20
same,Effect (TRZAS),[3]; spray application 250 g/ha,20-30
same,ABI1 inhibition,[2],++ (70%>inhibition≧50%)
COCCN1C(=O)CCc2cc(NS(=O)(=O)Cc3ccc(Cl)cc3)ccc21 [A38-165],Effect (TRZAS),[1]; spray application 250 g/ha,10-30
same,ABI1 inhibition,[2],++++ (inhibition≧90%)
CCC1(C)CC(=O)N(CCOC)c2ccc(NS(=O)(=O)Cc3ccc(F)cc3)cc21 (stereo not drawn) [F7-158],Effect (TRZAS),[1]; spray application 250 g/ha,10-20
CCC1(C)CC(=O)N(CC2CC2)c2ccc(NS(=O)(=O)Cc3ccc(F)cc3)cc21 (stereo not drawn) [F3-158],Effect (TRZAS),[1]; spray application 25 g/ha,10-20
CC1(C)CC(=O)N(CC(F)(F)F)c2ccc(NS(=O)(=O)c3ccc(C#N)cc3)cc21 [B2-45],Effect (TRZAS),[3]; spray application 25 g/ha,20
CC1(C)CC(=O)N(CC(F)(F)F)c2ccc(NS(=O)(=O)CCc3ccc(Cl)cc3)cc21 [B2-291],Effect (TRZAS),[3]; spray application 25 g/ha,20
same,Effect (TRZAS),[3]; spray application 250 g/ha,30
COC(=O)CCN1C(=O)CCc2cc(NS(=O)(=O)Cc3ccc(Br)cc3)ccc21 [A51-172],Effect (TRZAS),[1]; spray application 250 g/ha,10-20
same,ABI1 inhibition,[2],++++ (inhibition≧90%)
COC(=O)CN1C(=O)CCc2cc(NS(=O)(=O)Cc3ccc([N+](=O)[O-])cc3)ccc21 [A50-175],Effect (TRZAS),[1]; spray application 25 g/ha,10-20
same,ABI1 inhibition,[2],+++ (90%>inhibition≧70%)
COC(=O)CCN1C(=O)CCc2cc(NS(=O)(=O)Cc3ccc(Cl)cc3)ccc21 [A51-165],EF [%] (TRZAS),[4]; 25 g/ha,18%
same,ABI1 inhibition,[2],++++ (inhibition≧90%)
O=C1CCc2cc(NS(=O)(=O)Cc3ccc(C(F)(F)F)cc3)ccc2N1CC12CC3CC(CC(C3)C1)C2 [A46-178],Effect (TRZAS),[1]; spray application 25 g/ha,20-30
CCC1(C)CC(=O)N(CCOC)c2ccc(NS(=O)(=O)Cc3cccc(Cl)c3)cc21 (stereo not drawn) [F7-166],Effect (TRZAS),[1]; spray application 250 g/ha,10-20
COC(=O)CCN1C(=O)CC(C)(C)c2cc(NS(=O)(=O)Cc3ccc(C)cc3)ccc21 [B51-152],EF [%] (TRZAS),[4]; 250 g/ha,16%
same,Effect (TRZAS),[1]; spray application 250 g/ha,10-20
